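These data come from cells grown in 96-well plates and exposed to compound for 48 hours at five concentrations. GI50: concentration for 50% inhibition of growth. TGI is the concentration that stops growth completely.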 Where only a bound is given, the exact number is not on record here.

This is an account of results in PubChem BioAssay (NCI).

Common to all, as to assay: inhibition of tumour cell growth, NCI panel, 48 h
In experiment [1] the test system is MALME-3M melanoma.
Experiment [2] relates to HL-60(TB) leukemia.
Experiment [3] has as its system NCI/ADR-RES ovarian.
In experiment [4] the test system is M14 melanoma.
Experiment [5] has as its system OVCAR-5 ovarian.
Experiment [6] concerns HT29 colon.
Experiment [7] concerns SK-MEL-5 melanoma.
Experiment [8] concerns SK-MEL-28 melanoma.
The test system of experiment [9] is OVCAR-8 ovarian.
For experiment [10], the system named is RXF 393 renal.

Consider `NC(=O)c1cc(N2CC2)c([N+](=O)[O-])cc1[N+](=O)[O-]`, for which the TGI in [1], in experiment [2], in experiment [3], in [4], in experiment [5] and in [6] was greater than 200 µM in each case. Further, the TGI in experiment [7], in experiment [8], in [9] and in [10] was greater than 200 µM throughout. In addition, the GI50 in experiment [2], in experiment [4], in experiment [5], in [6], in experiment [9] and in experiment [10] was greater than 200 µM each time.

Turning to `CC1(C)N=C(N)N=C(N)N1c1ccc(CNC(=O)Nc2ccc(S(=O)(=O)F)c(Cl)c2)c(Cl)c1`, the GI50 in experiment [1] is 17.3 µM; in [2] it was 0.377 µM; in [3], greater than 90.8 µM; in [4], 1.24 µM; in experiment [5] it was 0.332 µM; in [6], 0.195 µM. Also, the GI50 in experiment [7] was 0.88 µM; in experiment [8] it was 4.35 µM; in [9], 2.08 µM; in experiment [10] it was 0.525 µM. For the same molecule, the TGI in [1] is greater than 100 µM; in experiment [2], greater than 100 µM; in experiment [3] it was greater than 100 µM; in experiment [4], greater than 100 µM; in experiment [5], greater than 100 µM; in experiment [6] it was greater than 67.3 µM. The TGI in experiment [7] is greater than 74.7 µM; in [8], greater than 100 µM; in experiment [9], greater than 100 µM; in experiment [10], greater than 100 µM.

As for `NCCCCC(NC(=O)C(N)CCCN=C(N)N)C(=O)NC(CCCCN)C(=O)NC(CCCN=C(N)N)C(=O)NC(CCCN=C(N)N)C(=O)NC(CCC(N)=O)C(=O)NC(CCCN=C(N)N)C(=O)NC(CCCN=C(N)N)C(=O)NC(CCCN=C(N)N)C(=O)NCC(=O)NCC(=O)O` (stereo unspecified), the GI50 in experiment [1], in experiment [2], in experiment [3], in experiment [4], in experiment [5] and in experiment [6] was greater than 50 µM each time. The GI50 in experiment [7], in experiment [8], in experiment [9] and in experiment [10] was greater than 50 µM throughout. The TGI in experiment [1], in experiment [2], in experiment [3], in experiment [4], in [5] and in [6] was greater than 50 µM throughout. Further, the TGI in experiment [7], in experiment [8], in experiment [9] and in experiment [10] was greater than 50 µM throughout.

On to `Cc1c(Cn2c(C)nc3c(C(=O)O)cc(N4CCOCC4)cc32)cccc1C(F)(F)F`, for which the GI50 in experiment [1] is greater than 69.7 µM; in experiment [2], 72.9 µM; in [3], 4.99 µM; in experiment [4], 37.1 µM; in experiment [5], 81.7 µM; in experiment [6], 57.3 µM. For the same molecule, the GI50 in experiment [7] was 47.1 µM; in experiment [8], greater than 100 µM; in experiment [9], 33.7 µM; in [10], 0.719 µM. The TGI in experiment [1] was greater than 100 µM; in experiment [2], greater than 100 µM; in experiment [3] it was 40.6 µM; in [4], greater than 100 µM; in experiment [5], greater than 100 µM; in [6], greater than 100 µM. Also, the TGI in experiment [7] was greater than 100 µM; in experiment [8], greater than 100 µM; in experiment [9], greater than 100 µM; in [10] it was greater than 63.4 µM.

Turning to `CC1=C([Te]c2ccccc2)C(=O)c2ccccc2C1=O`, the GI50 in [1] is 1.79 µM; in experiment [2] it was 0.326 µM; in experiment [3], 0.426 µM; in [4], 0.424 µM; in [5], 0.283 µM; in [6] it was 0.344 µM. Also, the GI50 in experiment [7] was 0.799 µM; in experiment [8], 1.25 µM; in experiment [9], 0.374 µM; in experiment [10], 1.14 µM. Also, the TGI in experiment [1] was determined as 3.56 µM; in experiment [2], 1.54 µM; in [3], 2.63 µM; in [4] it was 1.76 µM; in experiment [5], 0.86 µM; in [6], 1.36 µM. Moreover, the TGI worked out at 2.03 µM in experiment [7], 3.11 µM in [8], 4.35 µM in [9] and 4.63 µM in [10].

Regarding `CCCc1nn(C)c2c(=O)[nH]c(-c3cc(S(=O)(=O)N4CCN(C)CC4)ccc3OCC)nc12`, the GI50 in [1], in experiment [2], in experiment [3], in experiment [4], in experiment [5] and in experiment [6] was greater than 100 µM in each case. Besides, the GI50 in experiment [7], in [8], in [9] and in experiment [10] was greater than 100 µM in each case. In addition, the TGI in [1], in [2], in [3], in [4], in experiment [5] and in experiment [6] was greater than 100 µM in each case. In addition, the TGI in experiment [7], in [8], in experiment [9] and in experiment [10] was greater than 100 µM throughout.

With `Cc1cc2c(F)c(Oc3ncnc(Nc4ccc(N5C[C@@H](C)N[C@@H](C)C5)cc4)c3C#N)cc(F)c2[nH]1`, the GI50 was 1.61 µM in experiment [1]; 1.93 µM in experiment [2]; 3.85 µM in experiment [3]; 1.87 µM in experiment [4]; 2.8 µM in experiment [5]; 0.583 µM in [6]. For the same molecule, the GI50 in experiment [7] was 1.71 µM; in experiment [8], 1.96 µM; in experiment [9], 2.8 µM; in experiment [10] it was 0.641 µM. In addition, the TGI in experiment [1] stood at 3.48 µM; in [2], 3.95 µM; in [3], 20.9 µM; in [4], 3.59 µM; in experiment [5], 8.68 µM; in [6], 2.49 µM. Besides, the TGI was found to be 3.13 µM in experiment [7], 3.7 µM in experiment [8], 9.11 µM in experiment [9] and 2.44 µM in [10].
